Experimental data as given in US10988429B2, “Quinochalcone compound and uses thereof for treating cancer or inflammation” (CHON THERAPEUTICS INC., LTD., priority 2017, dated 2021).

Experiments:
mice melanoma B16 cells = test: B16 tumor-bearing C57 mice, HB-48 versus DMF (Example 3); type: in vivo, mouse; conditions: intratumor injection 5 mg/kg every two days for 10 days
Description: Establishment of tumor-bearing mice model: 1×10^5 mice melanoma B16 cells were transplanted into 4˜6 weeks old C57BL/C mice (C57 mice). The weight of each mouse was about 20 g. Tumors were visible on day 7. Mice were treated as follows when the tumor sizes were 5 mm×5 mm. • Control group 1 (PBS): Intratumor injection with PBS. • Experiment group 2 (HB-48): Intratumor injection with HB-48 at 5 mg/kg every two days for 10 days. • Experiment group 3 (DMF): Intratumor injection with DMF with 5 mg/kg every two days for 10 days.
Tumor sizes were recorded daily.

[1] = test system: A375, B16, MP-1, MCF-7, HL-60, K562 and ALL-1 cells; test: 3D gel culture, clone size, HB-48 alone (Example 1); type: cell-based, human; mouse (B16); conditions: 3D culture; HB-48 1, 5, 10, 20 or 50 μmol/ml; 48 and 96 hours
Description: 3D gel technology involves culturing cells in a gel-like matrix. Studies in our lab have shown that cancer cells grown using 3D technology behave more like cancers found in vivo, as cancer cells grown using 3D technology display strong proliferative ability, higher drug resistance, stronger tumorigenicity and greater far-end invasion transfer ability than cancer cells cultured using traditional methods. The following treatments were added to 3D cultures of viable cells. • Control group 1 (Medium): RPMI-1640 medium supplemented with glutamine. • Experiment group1 (HB-48): HB-48 was added to cells at a final concentration of 1 μmol/ml, 5 μmol/ml, 10 μmol/ml, 20 μmol/ml, or 50 μmol/ml in Medium.
Dosing drugs was recorded as day 0. Clone size was determined by taking photographic images 48 and 96 hours after dosing. ImageJ software was used to analyze the size of the clones. The clone sizes in different groups were normalized to the control group on the second day.

[2] = test system: A375, B16, MP-1, MCF-7, HL-60, K562 and ALL-1 cells; test: 3D gel culture, number of colonies, HB-48 alone (Example 2); type: cell-based, human; mouse (B16); conditions: 3D culture; HB-48 1, 5, 10, 20 or 50 μmol/ml
Description: The following treatments were added to cultures of viable cells. • Control group 1 (Medium): RPMI-1640 medium supplemented with glutamine. • Experiment group1 (HB-48): HB-48 was added to cells at a final concentration of 1 μmol/ml, 5 μmol/ml, 10 μmol/ml, 20 μmol/ml, or 50 μmol/ml in Medium.
The day of drug treatment was recorded as day 0. […] The size of colonies in group control on day 2 is served as control.

[3] = test system: PD-1 expression in mouse CD8+ T cells; test: PD-1 expression on activated mouse CD8+ T cells, flow cytometry (Example 8); type: cell-based; conditions: mouse spleen CD8+ T cells activated by anti-CD3/CD28 beads; Kyn 200 μM and HB-48 10 μM; 48 hours
Description: Mouse spleen CD8+ T cells were sorted by magnetic beads and seeded in U-bottom 96-well plates (100,000/well) and T cells were activated by anti-CD3/CD28 magnetic beads. The medium was RPMI-1640 plus 10 ng/Mouse IL-2 and […] β-mercaptoethanol. Treatment and dosing is described below: • Control group 1 (PBS): Medium and PBS; • Experimental group 2 (Kyn): Kyn 200 μM was added to the Medium. • Experimental group 3 (Kyn+DMF): Kyn 200 μM and DMF 10 μM were added to the Medium simultaneously. • Experimental group 4 (Kyn+HB-48): Kyn 200 μM and HB-48 10 μM were added to the Medium simultaneously.
(§1) PD-1 expression levels were measured by flow cytometry in each group of T cells at 48 hours.

[4] = test system: OVA-B16 cells co-cultured with OT-1 CD8+ T cells; test: Apoptosis of OVA-B16 co-cultured with pretreated OT-1 CD8+ T cells (Example 8); type: cell-based, mouse; conditions: T cells pretreated with HB-48 10 μM for 24 hours; co-culture ratio 1 to 10; 4 hours
Description: Spleen CD8+ T cells of OT-1 mice were obtained by magnetic bead sorting, seeded in a U-shaped bottom 96-well plate (100,000 cells/well) and treated as follows. • Control group 1 (PBS): medium plus PBS. • Experimental group 2 (DMF): DMF 10 μM was added to the medium. • Experimental group 3 (HB-48): HB-48 10 μM was added to the medium.
After pretreatment of T cells for 24 hours, 3D cultured OVA-B16 was co-cultured with OT-1 CD8+ T cells at a ratio of 1 to 10, and the apoptosis of OVA-B16 cells was detected by flow cytometry after 4 hours.

OVA-B16 melanoma cells = test: OVA-B16 tumor-bearing C57BL/6 mice, adoptive CD8+ T cells and HB-48 (Example 9); type: in vivo, mouse; conditions: HB-48 intratumoral 5 mg/kg every two days, 10 times, OT-1 T cells 4×10^6 i.v. every 5 days, 3 times
Description: Tumor-bearing mice were constructed: OVA-B16 melanoma cells were seeded on C57BL/6 mice (inoculation amount of 1×10^5 cells) for 4-6 weeks. […] When the tumor size reached 5 mm×5 mm, tumor-bearing mice were treated as follows: • Control group 1 (PBS): Intratumoral injection of PBS only. • Experimental group 2 (CD8+ T cells): Tumor bearing mice were intravenously adoptively transferred with 4×10^6 OVA-specific CD8^+ T-cells (OT-1 T-cells) once every 5 days for 3 times. • Experimental group 3 (DMF): Tumor-bearing mice were intratumorally injected with DMF every two days, a total of 10 times, each dose of 5 mg/kg. • Experimental group 4 (HB-48): Tumor-bearing mice were intratumorally injected with HB-48 every two days, a total of 10 times, each dose of 5 mg/kg. • Experimental group 5 (CD8+ T and DMF): Tumor-bearing mice were intravenously transferred with OT-1 T cells every 5 days for 3 times, and intratumorally injected with DMF every two days for 10 times at the same time. • Experimental group 6 (CD8+ T and HB-48): Tumor-bearing mice were intravenously transfered with OT-1 T cells every 5 days for 3 times, and intratumorally injected with HB-48 every two days for 10 times at the same time.
Tumor length and width were measured daily, and tumor volume changes were calculated.

[5] = test system: PD-1 expression in human peripheral blood CD8+ T cells; test: PD-1 expression in peripheral blood CD8+ T cells of breast cancer patients (Example 10); type: cell-based; conditions: resting CD8+ T cells of breast cancer patients; HB-48 10 μM; 48 hours; compared with DMF 10 μM
Description: Mononuclear cells were obtained from peripheral blood of breast cancer patients using Ficoll. CD8+ T cells were sorted by magnetic beads and plated on U-bottom 96-well plates (100,000 cells/well) supplemented with RPMI-1640 supplemented with 10 ng/mL human IL-2. Dosing by the following groups: • Control group 1 (PBS): medium plus PBS. • Experimental group 2 (DMF): DMF 10 μM was added to the medium. • Experimental group 3 (HB-48): HB-48 10 μM was added to the medium.
as §1

[6] = test system: PD-1 expression in human activated CD8+ T cells; test: Kyn-mediated PD-1 upregulation in activated peripheral blood CD8+ T cells of breast cancer patients (Example 10); type: cell-based; conditions: Kyn 200 μM and HB-48 10 μM, 48 hours, compared with DMF 10 μM
Description: (§2) Mononuclear cells were obtained from peripheral whole blood of patients with breast cancer using Ficoll. CD8+ T cells were sorted by magnetic beads and plated on 96-well U-shaped bottom plates (100,000 cells/well). T cells were activated by anti-CD3/CD28 magnetic beads. Media was RPMI-1640 plus 10 ng/mL human IL-2. Dosing by the following groups: • Control group 1 (PBS): medium and PBS. • Experimental group 2 (Kyn): Kyn 200 μM was added to the medium. • Experimental group 3 (Kyn+DMF): Kyn 200 μM and DMF 10 μM were added to the medium simultaneously. • Experimental group 4 (Kyn+HB-48): Kyn 200 μM and HB-48 10 μM were added to the medium simultaneously.
as §1

Kyn transporter PAT4 = test: Expression of Kyn transporter PAT4 in activated human CD8+ T cells, quantitative PCR (Example 10); type: cell-based; conditions: activated CD8+ T cells of breast cancer patients; Kyn 200 μM with or without HB-48 10 μM; 48 hours
Description: as §2
Each group of T cells RNA was extracted after 48 hours, and the expression of PAT4 was detected by fluorescence quantitative PCR.

[7] = test system: inflammatory factors of macrophages derived from murine bone marrow; test: Expression of inflammatory factors in bone marrow-derived macrophages, qPCR (Example 13); type: cell-based, mouse; conditions: HB-48 10 μM, 48 h
Description: Bone marrow-derived macrophages were obtained from mouse bone marrow cells, RPMI-1640 plus mouse M-CSF 20 ng/mL for 5 days and were treated as follows: • Control group 1 (PBS): medium plus PBS; • Experimental group 2 (HB-48): medium plus HB-48 at a dose of 10 μM. After 48 h, macrophages were collected and the expression of IFN-γ, TNF-α, IL-12p35, IL-12p40 and IL-2 was detected by qPCR in both groups.

SMILES	tumor growth (tumor volume) (mice melanoma B16 cells)	growth (relative clone size) of solid tumor and leukemia cells [1]	colony numbers of solid tumor cells and leukemia cells [2]	Kyn-mediated upregulation of PD-1 in CD8+ T cells [3]	percentage of apoptosis of OVA-B16 tumor cells [4]	therapeutic effect (tumor volume) (OVA-B16 melanoma cells)	PD-1 expression in peripheral blood CD8+ T cells [5]	Kyn-mediated upregulation of PD-1 in peripheral blood CD8+ T cells [6]	expression of PAT4 in peripheral blood CD8+ T cells (Kyn transporter PAT4)	expression of IFN-γ [7]	expression of IL-1β [7]	expression of IL-12p35 [7]	expression of IL-12p40 [7]	expression of TNF-α [7]
COc1ccc(-c2cc(=O)c3ccccc3o2)cc1OC [DMF, 3′,4′-Dimethoxyflavone, reference compound]	could inhibit the tumor growth													
COCOC1=CC(=O)/C(=C(O)/C=C/c2ccc(OCOC)cc2)C(=O)C1(CC=C(C)C)CC=C(C)C [HB-48, 2-[1-hydroxy-3-(4-methoxymethoxyphenyl)allylidene]-5-methoxymethoxy-6,6-diprenylcyclohex-4-ene-1,3-dione]	shows a significant enhanced anticancer effect	significantly inhibited the growth of solid tumor and leukemia cells in a concentration-dependent manner	effectively reduced the colony numbers of solid tumor cells and leukemia cells in a dose dependent manner	inhibited Kyn-mediated upregulation of PD-1 in CD8+ T cells more effectively than DMF	significantly increased	had a certain therapeutic effect	more effectively down-regulated PD-1 expression	inhibited Kyn-mediated upregulation of PD-1	can down-regulate the expression of PAT4	significantly reduced	significantly reduced	significantly reduced	significantly reduced	significantly reduced
Nc1ccccc1C(=O)CC(N)C(=O)O (stereo not shown) [Kyn, Kynurenine, reference compound]									can up-regulate the expression of its transporter PAT4					
